{
  "source": "patent US10111936B2",
  "about": "“Metal-glycoprotein complexes and photodynamic therapy of immune privileged sites with same” (Theralase Technologies, Inc., priority 2015, dated 2018)",
  "key": {"[1]": {"assay": "Fluorescence with and without transferrin", "assay_type": "physicochemical", "details": "for fluorescence emission maximum: 10 uM", "method": "Fluorescence of TLD1433 (10 uM) was measured quartz cuvettes without Tf (in water) and in the presence of 0.2 mg/mL Tf (in phosphate buffer+100 mM NaCl, pH=7.0). Fluorescence was measured at different excitation wavelengths (380, 400, 450, 470, 500 nm).\nFluorescence of TLDOsH2dppn (10 uM) was measured quartz cuvettes without Tf (in water) and in the presence of 0.2 mg/mL Tf (in phosphate buffer+100 mM NaCl, pH=7.0). Fluorescence was measured at different excitation wavelengths (380, 400, 450, 470, 500 nm)."}, "[2]": {"test_system": "U87 cells", "assay": "Intracellular uptake by ICP-MS, cancer cells", "assay_type": "cell-based, human", "details": "200 uM photosensitizer, 0.8 mg/mL transferrin, 4 hours", "method": "(§1) Cell culture (U87 cells) was exposed to 200 uM of the photosensitizer without additional transferrin and in the presence of 0.8 mg/mL transferrin for 4 hours. The incubation mix was washed away and the cells were collected, counted, and lysed. Lysed solution was dissolved in nitric acid and appropriate metals concentration was measured using inductively coupled plasma mass spectrometry. The metals concentration is directly proportional to the concentration of the photosensitizer."}, "[3]": {"test_system": "AY27 cancer cell line", "assay": "In vitro PDT effect, Presto Blue cell kill", "assay_type": "cell-based", "details": "90 J cm−2, 0.4 mg/mL human transferrin, 30 minutes", "method": "The photosensitizer was pre-mixed with 0.4 mg/mL human transferrin and incubated for 1 hour at 37° C. In control group (no additional transferrin), equivalent volume of no-transferrin medium was added. The cells were subsequently incubated with the pre-mixes for 30 minutes (FIG. 14A) or 90 minutes (FIG. 14B). After that, the medium was replaced with a fresh one (without photosensitizer and transferrin) and the cells were irradiated. On the next day (21 hours post-irradiation), viability of the cells was measured using Presto Blue viability assay, and percent of cell kill was calculated. The PDT effect shown is a result of subtraction of “photosensitizer alone” and “light alone” cell kill from the total PDT cell kill.\nThe photosensitizer was pre-mixed with 0.4 mg/mL human transferrin and incubated for 1 hour at 37° C. In control group (no additional transferrin), equivalent volume of no-transferrin medium was added. The cells were subsequently incubated with the pre-mixes for 30 minutes. After that, the medium was replaced with a fresh one (without photosensitizer and transferrin) and the cells were irradiated. On the next day (21 hours post-irradiation), viability of the cells was measured using Presto Blue viability assay, and percent of cell kill was calculated. […]"}, "[4]": {"test_system": "Mice", "assay": "In vivo toxicity, maximum tolerated dose, i.p. escalating doses", "parameters": "species or system mouse", "details": "no transferrin", "method": "Mice were injected (i.p.) with escalating doses of the photosensitizers with and without transferrin."}, "[5]": {"test_system": "AY27 cancer cells", "assay": "Transferrin receptor antibody blocking, dark toxicity and PDT effect", "assay_type": "cell-based", "details": "635 nm, 90 J cm−2, anti-transferrin receptor antibody", "method": "The cells were incubated with anti-transferrin receptor antibody. The photosensitizer was pre-mixed in parallel with 0.4 mg/mL human transferrin and incubated for 1 hour at 37° C. In control group (no additional transferrin), equivalent volume of no-transferrin medium was added. The cells were washed of the excess of antibody (the cells incubated in medium without antibody served as comparison groups) and incubated with the pre-mixes for 30 minutes. After that, the medium was replaced with a fresh one (without photosensitizer and transferrin) and the cells were irradiated. On the next day (21 hours post-irradiation), viability of the cells was measured using Presto Blue viability assay, and percent of cell kill was calculated. The PDT effect shown is a result of subtraction of “photosensitizer alone” and “light alone” cell kill from the total PDT cell kill. Dark toxicity is shown on FIG. 20A, PDT effect is shown on FIG. 20B.\n(§2) The cells were incubated with anti-transferrin antibody. […] On the next day (21 hours post-irradiation), viability of the cells was measured using Presto Blue viability assay, and percent of cell kill was calculated. […]\nas §2"}, "[6]": {"test_system": "normal human fibroblasts", "assay": "Uptake by normal cells by ICP-MS", "assay_type": "cell-based", "details": "200 uM, 0.8 mg/mL transferrin, 4 hours, much lesser extent than cancer cells", "method": "as §1, with “(normal human fibroblasts)” for “(U87 cells)”"}},
  "data": [
    {"smiles": "[Os+2].c1ccc2cc3nc4c5cccnc5c5ncccc5c4nc3cc2c1.c1ccc2nc(-c3ccc4ccccc4n3)ccc2c1.c1ccc2nc(-c3ccc4ccccc4n3)ccc2c1", "note": "[TLDOsH2dppn]", "values": [
      {"measurement": "fluorescence emission maximum", "setting": "[1]; 0.2 mg/mL transferrin", "result": 650, "unit": "nm"},
      {"measurement": "fluorescence emission maximum", "setting": "[1]; no transferrin (in water)", "result": 660, "unit": "nm"},
      {"measurement": "fluorescence in the presence of transferrin", "setting": "[1]; 0.2 mg/mL transferrin, especially at 470 nm excitation", "result": "strongly increased"},
      {"measurement": "uptake into cancer cells, effect of transferrin", "setting": "[2]", "result": "transferrin facilitated uptake"},
      {"measurement": "PDT effect, effect of transferrin", "setting": "[3]; 530 nm", "result": "increases PDT effect"},
      {"measurement": "PDT effect, effect of transferrin", "setting": "[3]; 635 nm", "result": "increases PDT effect"},
      {"measurement": "MTD Dose", "setting": "[4]", "result": 50, "unit": "mg/kg"},
      {"measurement": "effect of blocking transferrin receptors on dark toxicity and PDT effect", "setting": "[5]", "result": "prevents decrease in dark toxicity and facilitation of PDT effect"},
      {"measurement": "cellular accumulation in normal cells, effect of transferrin", "setting": "[6]", "result": "higher in the presence of transferrin"}
    ]}
  ]
}
